# Data from PubChem BioAssay (NCI).
#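 96-well plates; 48 h exposure; 5 concentrations. Endpoints by linear interpolation between flanking doses. Not reached: highest tested concentration assigned. GI50 is the concentration that inhibits growth by half. At the TGI there is no net growth.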
# Assays:
# Test in all cases: DTP human tumour cell line panel, 48 h
# [1] = tested on: CAKI-1 renal
# [2] = tested on: COLO 205 colon
# [3] = tested on: HCT-116 colon
# [4] = tested on: HL-60(TB) leukemia
# [5] = tested on: LOX IMVI melanoma
# [6] = tested on: SF-539 CNS
# [7] = tested on: SN12C renal
# [8] = tested on: U251 CNS
# [9] = tested on: MALME-3M melanoma
# [10] = tested on: MDA-N
SMILES,TGI [1] [µM],TGI [2] [µM],TGI [3] [µM],TGI [4] [µM],TGI [5] [µM],TGI [6] [µM],TGI [7] [µM],TGI [8] [µM],TGI [9] [µM],TGI [10] [µM],GI50 [1] [µM],GI50 [2] [µM],GI50 [3] [µM],GI50 [4] [µM],GI50 [5] [µM],GI50 [9] [µM],GI50 [6] [µM],GI50 [7] [µM],GI50 [8] [µM]
COC(=O)C1=C(C)NC(C)=C(C(=O)OC)C1c1nc2sccn2c1[N+](=O)[O-],> 100,> 100,> 100,> 100,> 100,> 100,> 100,> 100,,,,,,,,,,,
S=C(Nc1ccc2c(c1)oc1ccccc12)c1cccnc1,,> 100,> 100,,> 100,,> 100,89.7,> 100,> 100,,,,,,,,,
Cc1cc(S(=O)(=O)Nc2nc3cc(-c4ccc(Cl)cc4)sc3c(=O)n2N)c(S)cc1Cl,> 100,56.1,> 100,,> 100,,> 100,> 100,> 100,> 100,,,,,,,,,
Nc1ccc(C(=O)N2CCC[C@H]2CO)c(N)c1,> 100,> 100,> 100,> 100,> 100,> 100,> 100,> 100,,> 100,,,,,,,,,
CCOC(=O)c1ccc(C)c(N=NN(C)C)c1,> 100,> 100,> 100,> 100,> 100,> 100,> 100,> 100,> 100,,,,,,,,,,
COC1C=COC2(C)Oc3c(C)c(O)c4c(O)c(c(C5SCCS5)c(O)c4c3C2=O)NC(=O)C(C)=C/C=C\C(C)C2OC(C)(C)OC(C2C)C(C)C(OC(C)=O)C1C (configuration not stated),27.7,> 100,> 100,17.4,28.3,86.4,16.6,> 100,36.5,,,,,,,,,,
COc1ccc(-c2nn(-c3ccc(NC(=O)Nc4cc(C(F)(F)F)cc(C(F)(F)F)c4)cc3)cc2-c2ccncc2)cc1Cl,> 100,4.17,3.52,6.58,> 100,5.37,16.6,5.48,7.88,,2.51,2.06,1.53,2.5,3.31,2.11,1.87,3.13,1.85
COC(=O)C1CCCN1C(=O)C(Cc1cn(S(=O)(=O)c2ccc(C)cc2)cn1)NC(=O)OC(C)(C)C (configuration not stated),,,> 100,> 100,,,> 100,> 100,> 100,> 100,,,,,,,,,
Nc1ccn(C2OC(CO)C(O)C2O)c(=O)c1 (configuration not stated),> 625,> 625,> 625,> 625,446,> 625,381,> 625,365,,,,,,,,,,
Cc1ccc(S(=O)(=O)C(C#N)c2nc3ccccc3nc2-n2ccnc2)cc1 (configuration not stated),,> 100,> 100,> 100,,> 100,> 100,> 100,> 100,,,,,,,,,,
CN1COCc2c1ccc1cc3ccc4c(c3nc21)COCN4S(C)(=O)=O,> 100,> 100,> 100,,> 100,,> 100,> 100,> 100,> 100,,,,,,,,,
COc1ccc(C2COc3cc(O)c(O)cc3C2)cc1 (configuration not stated),52.9,27.8,42.1,5.41,500,136,166,77.8,59.3,,,,,,,,,,
CC(C)CC(O)P(=O)(O)O (configuration not stated),> 100,> 100,> 100,> 100,,,> 100,> 100,,> 100,,,,,,,,,
CCC(=O)ONC(=O)Cn1ccc([N+](=O)[O-])n1,> 100,> 100,> 100,> 100,> 100,> 100,> 100,,> 100,> 100,,,,,,,,,
Cn1c2ccccc2c(=O)c2cccc(C(=O)NC(CCCN=C(N)N)C(=O)O)c21 (configuration not stated),,> 100,> 100,,> 100,> 100,> 100,> 100,> 100,> 100,,,,,,,,,
Cc1ccc(O)c(-c2cscn2)c1,> 100,> 100,> 100,22.2,> 100,> 100,> 100,,> 100,> 100,,,,,,,,,
NNC(=O)CSc1nc2ccccc2c(=O)n1N,> 100,> 100,> 100,,> 100,> 100,> 100,89.3,> 100,> 100,,,,,,,,,
CCOc1ccc(/C=C2/C(=O)N=C(NC(C)=O)N2C)cc1,> 100,> 100,> 100,71.7,> 100,> 100,> 100,> 100,,> 100,,,,,,,,,

SMILES,TGI [1] [µM],TGI [2] [µM],TGI [3] [µM],TGI [4] [µM],TGI [5] [µM],TGI [6] [µM],TGI [7] [µM],TGI [8] [µM],TGI [9] [µM],TGI [10] [µM],GI50 [1] [µM],GI50 [2] [µM],GI50 [3] [µM],GI50 [4] [µM],GI50 [5] [µM],GI50 [9] [µM],GI50 [6] [µM],GI50 [7] [µM],GI50 [8] [µM]
CCC1(C)C=Cc2c(cc(O)c3c(=O)c4ccccc4n(C)c23)O1 (configuration not stated),> 10,> 10,> 10,,> 10,> 10,> 10,> 10,> 10,> 10,,,,,,,,,
CSc1ncnc2c1ncn2CCC#N,> 100,> 100,> 100,> 100,> 100,> 100,> 100,,> 100,> 100,,,,,,,,,
Nc1[nH]nc2nc3ccc(C(F)(F)F)cc3nc12,> 100,57.3,> 100,,50.8,,> 100,> 100,> 100,> 100,,,,,,,,,
O=C1NC2OC(C(O)CO)C(O)C2O1 (configuration not stated),> 100,> 100,> 100,> 100,> 100,,> 100,> 100,> 100,,,,,,,,,,
COc1ccc(/C=C2\N=C(SC)NC2=O)cc1,> 100,> 100,> 100,,> 100,> 100,> 100,> 100,> 100,> 100,,,,,,,,,
O=C(CN(c1ccccc1)c1ccccc1)n1nnc2ccccc21,> 100,> 100,84.7,> 100,70.3,> 100,> 100,> 100,> 100,,,,,,,,,,
OCc1ccc(C2CC(c3ccco3)=NN2c2ccccc2)o1 (configuration not stated),,> 100,> 100,> 100,> 100,> 100,> 100,> 100,> 100,,,,,,,,,,
CC(C(O)Cc1ccccc1)N(C)N=Nc1ccc([N+](=O)[O-])cc1 (configuration not stated),51.8,39.2,30.2,> 100,,,44.9,38.5,43.3,39.7,,,,,,,,,
CCOC(=O)C1C2CCC1CC(=NNc1ccc([N+](=O)[O-])cc1[N+](=O)[O-])C2 (configuration not stated),> 50,> 50,> 50,,> 50,> 50,> 50,> 50,> 50,> 50,,,,,,,,,
COc1cc2c3c(c1OC)C1(C=CC(=O)C=C1)C[C@H]3N(C)CC2,,> 100,> 100,,> 100,> 100,> 100,> 100,> 100,,,,,,,,,,
COc1c(C(C)C)cc2c3c1OC(=O)[C@@]31CCCC(C)(C)C1CC2 (some centres not stated),> 100,31.9,29.1,37.4,> 100,44.8,> 100,> 100,98.5,,,,,,,,,,
CC1=C(CO)C(=O)O[C@@H]([C@@H](CO)[C@H]2CCC3C4C[C@@H](O)[C@@]5(O)CC=CC(=O)[C@]5(C)C4CC[C@@]32C)C1 (some centres not stated),> 100,> 100,> 100,> 100,> 100,> 100,> 100,,> 100,> 100,,,,,,,,,
CN1[C@@H]2C[C@@H](OC(=O)[C@H](CO)c3ccccc3)C[C@H]1[C@@H]1O[C@@H]12,> 100,> 100,> 100,,> 100,,> 100,,> 100,> 100,,,,,,,,,
C=C([C@@]1(O)C[C@H]2[C@H](CCC2(OC)OC)[C@@H]2c3ccccc3O[C@@H]21)[Si](C)(C)C,> 100,> 100,> 100,98.6,> 100,> 100,> 100,> 100,,> 100,,,,,,,,,
CSc1sc2ccccc2[s+]1,> 100,> 100,> 100,> 100,> 100,> 100,> 100,> 100,> 100,,,,,,,,,,
COc1cc(OC)c(C2c3cc4c(cc3OC(N3CCCC3)C2C)OCO4)c(OC)c1 (configuration not stated),,,16.7,,28.4,25.9,47.9,,,35.4,,,,,,,,,
O=C1c2ccccc2C2(c3ccc(Cl)cc3)N[C@H]3CCCC[C@@H]3N12 (some centres not stated),> 100,> 100,> 100,> 100,> 100,,> 100,> 100,,> 100,,,,,,,,,
O=C1c2cccnc2-c2nccc3c2c1nc1cc(Br)ccc13,0.591,2.12,0.0762,,0.205,0.709,0.412,0.288,0.374,0.732,,,,,,,,,
